One molecule from US8178689B2, “Tricyclic compounds” (Hoffman-La Roche Inc., priority 2010, dated 2012) can be followed below.

The assay concerns the target T1, Recombinant human liver GK1 (GST-GK) (Homo sapiens, UniProt P35557).
T1 construct: made in house; host or cells: E. coli
T1 sequence (P35557 1-466 isoform P35557-2): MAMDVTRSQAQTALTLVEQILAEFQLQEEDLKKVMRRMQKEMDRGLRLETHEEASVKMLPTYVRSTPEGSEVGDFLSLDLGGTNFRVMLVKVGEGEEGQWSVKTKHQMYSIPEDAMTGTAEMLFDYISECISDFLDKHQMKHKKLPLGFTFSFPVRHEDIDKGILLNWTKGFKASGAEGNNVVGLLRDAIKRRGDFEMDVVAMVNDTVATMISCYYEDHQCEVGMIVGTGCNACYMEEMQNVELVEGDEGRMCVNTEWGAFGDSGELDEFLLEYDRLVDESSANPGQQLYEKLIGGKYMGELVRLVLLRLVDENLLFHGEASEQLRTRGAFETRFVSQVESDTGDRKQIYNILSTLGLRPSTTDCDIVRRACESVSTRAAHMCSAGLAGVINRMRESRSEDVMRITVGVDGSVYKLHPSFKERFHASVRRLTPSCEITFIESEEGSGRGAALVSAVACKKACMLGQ
The assay is described as follows: In vitro glucokinase activity (G6PDH-coupled NADH generation assay). Format: biochemical. Further details: unit not given here. The settings on record: concentration of activator that produced a 50% increase in the activity of GK; 5 mM D-glucose, 30° C., pH 7.1, 10% DMSO. Here is the method:
Glucokinase In Vitro Assay Protocol: Glucokinase (GK) was assayed by coupling the production of glucose-6-phosphate to the generation of NADH with glucose-6-phosphate dehydrogenase (G6PDH, 0.75-1 kunits/mg; Boehringer Mannheim, Indianapolis, Ind.) from Leuconostoc mesenteroides as the coupling enzyme:
Recombinant human liver GK1 was expressed in E. coli as a glutathione S-transferase fusion protein (GST-GK) [Liang et al, 1995]and was purified by chromatography over a glutathione-Sepharose 4B affinity column using the procedure provided by the manufacturer (Amersham Pharmacia Biotech, Piscataway, N.J.).
The assay was conducted at 30° C. in a flat bottom 96-well tissue culture plate from Costar (Cambridge, Mass.) with a final incubation volume of 120 μL. The incubation reaction contained the following: 25 mM Hepes buffer (pH 7.1), 25 mM KCl, 5 mM D-glucose, 1 mM ATP, 1.8 mM NAD, 2 mM MgCl2, 1 μM sorbitol-6-phosphate, 1 mM dithiothreitol, test drug or 10% DMSO, ˜7 units/ml G6PDH, and GK (see below). All organic reagents were >98% pure and were from Boehringer Mannheim with the exceptions of D-glucose and Hepes which were from Sigma Chemical Co, St Louis, Mo. Test compounds were dissolved in DMSO and were added to the incubation reaction minus GST-GK in a volume of 12 μL to yield a final DMSO concentration of 10%. This mix was pre-incubated in the temperature controlled chamber of a SPECTRAmax 250 microplate spectrophotometer (Molecular Devices Corporation, Sunnyvale, Calif.) for 10 minutes to allow temperature equilibrium and then the reaction was started by the addition of 20 μL GST-GK.
After addition of enzyme, the increase in optical density (OD) at 340 nm was monitored spectrophotometrically to determine the rate of change (OD340 per min). The GK activity (OD340/min) in control wells (10% DMSO minus GK activators) was compared with the activity in wells containing test GK activators, and the concentration of activator that produced a 50% increase in the activity of GK, i.e., the SC1.5:0.1, was calculated. The table below provides the in vitro glucokinase activity for the compounds in the Examples: […]

Turning to `COC(=O)c1ccc(NC(=O)[C@H](CC2CCCCC2)N2CC3=C(Oc4c(OC)ccc(OC)c4C3)C2=O)nc1` [Example 17, 6-[(S)-3-Cyclohexyl-2-(5,8-dimethoxy-3-oxo-3,9-dihydro-1H-chromeno[2,3-c]pyrrol-2-yl)-propionylamino]-nicotinic acid methyl ester], the “SC 1.5:0.1” value is reported as 0.219.
